# Assay results: ChEMBL document CHEMBL1201862, “PubChem BioAssay data set” (2004)
#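 In this assay, cells in 96-well plates receive the compound at five concentrations for 48 hours. Endpoints are linearly interpolated between the surrounding concentrations. At the GI50, growth is halved.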 The source made the active and inactive calls. No stated cut-off is given here; in the data, active = GI50 up to about 1.1 µM and inactive = higher.
# Assays:
# Experiment in all cases: NCI anticancer screen, dose series, 48 h
# HL-60 = tested on: HL-60
# NCI/ADR-RES = tested on: NCI/ADR-RES
# MDA-MB-231 = tested on: MDA-MB-231
# EKVX = tested on: EKVX
# NCI-H226 = tested on: NCI-H226
# DU-145 = tested on: DU-145
# NCI-H522 = tested on: NCI-H522
# SN12C = tested on: SN12C
# TK-10 = tested on: TK-10
# UACC-257 = tested on: UACC-257
# SK-MEL-5 = tested on: SK-MEL-5
# 786-0 = tested on: 786-0
# SF-295 = tested on: SF-295
# OVCAR-3 = tested on: OVCAR-3
# KM12 = tested on: KM12
# Malme-3M = tested on: Malme-3M
# BT-549 = tested on: BT-549
# MOLT-4 = tested on: MOLT-4
# HOP-92 = tested on: HOP-92
SMILES,GI50 (HL-60),GI50 (NCI/ADR-RES),GI50 (MDA-MB-231),GI50 (EKVX),GI50 (NCI-H226),GI50 (DU-145),GI50 (NCI-H522),GI50 (SN12C),GI50 (TK-10),GI50 (UACC-257),GI50 (SK-MEL-5),GI50 (786-0),GI50 (SF-295),GI50 (OVCAR-3),GI50 (KM12),GI50 (Malme-3M),GI50 (BT-549),GI50 (MOLT-4),GI50 (HOP-92)
Cc1cc(N(CCC#N)CCC#N)ccc1C(/N=N/c1ccccc1)=N\NC(=O)c1cc(Cl)ccc1O,37.9 µM (inactive),20.1 µM (inactive),27.1 µM (inactive),30.5 µM (inactive),20.5 µM (inactive),27.5 µM (inactive),13.6 µM (inactive),26.5 µM (inactive),14.9 µM (inactive),18.6 µM (inactive),21.5 µM (inactive),23.9 µM (inactive),18.5 µM (inactive),18 µM (inactive),26.1 µM (inactive),27.9 µM (inactive),18.2 µM (inactive),39 µM (inactive),–
CCCCCCCCCC1(N=[N+]=[N-])C(=O)c2ccccc2N(C)C1=O (centres undefined),> 100 µM (inactive),26.7 µM (inactive),–,–,–,28.7 µM (inactive),–,26.1 µM (inactive),32.3 µM (inactive),32.9 µM (inactive),13 µM (inactive),38.5 µM (inactive),42.2 µM (inactive),25 µM (inactive),48 µM (inactive),28.1 µM (inactive),28.1 µM (inactive),7.13 µM (inactive),20.2 µM (inactive)
COC1=C(OC)C(=O)C(Cc2c(C)nc3sc(C)cn23)=C(C)C1=O,11.6 µM (inactive),15.9 µM (inactive),14.7 µM (inactive),16.7 µM (inactive),–,20.2 µM (inactive),17.4 µM (inactive),16.9 µM (inactive),18.5 µM (inactive),12.8 µM (inactive),15.2 µM (inactive),19.7 µM (inactive),19.1 µM (inactive),17.5 µM (inactive),26.3 µM (inactive),14.9 µM (inactive),16.9 µM (inactive),1.7 µM (inactive),–
COC(=O)c1c(O)ccc2c1c1c(n2Cc2ccccc2)C(=O)c2ccccc2C1,12.6 µM (inactive),25.8 µM (inactive),39.7 µM (inactive),–,46.3 µM (inactive),99.3 µM (inactive),–,21.6 µM (inactive),65.9 µM (inactive),50.6 µM (inactive),50 µM (inactive),39.2 µM (inactive),27.1 µM (inactive),43 µM (inactive),35.1 µM (inactive),69.5 µM (inactive),58.6 µM (inactive),3.17 µM (inactive),–
COC(=O)C1CC/C(=N/c2ccc(C)cc2C)N1 (centres undefined),> 100 µM (inactive),–,–,> 100 µM (inactive),> 100 µM (inactive),–,> 100 µM (inactive),> 100 µM (inactive),> 100 µM (inactive),> 100 µM (inactive),> 100 µM (inactive),> 100 µM (inactive),> 100 µM (inactive),> 100 µM (inactive),> 100 µM (inactive),> 100 µM (inactive),–,> 100 µM (inactive),> 100 µM (inactive)
N[C@@H](CCC(=O)NCP(=O)(O)O)C(=O)O,> 100 µM (inactive),> 100 µM (inactive),> 100 µM (inactive),> 100 µM (inactive),–,–,18.2 µM (inactive),> 100 µM (inactive),> 100 µM (inactive),> 100 µM (inactive),> 100 µM (inactive),> 100 µM (inactive),> 100 µM (inactive),> 100 µM (inactive),> 100 µM (inactive),> 100 µM (inactive),> 100 µM (inactive),> 100 µM (inactive),–
CN(C)/N=N/c1nc2c(c(=O)n(C)c(=O)n2C)n1C,–,> 100 µM (inactive),> 100 µM (inactive),> 100 µM (inactive),> 100 µM (inactive),> 100 µM (inactive),> 100 µM (inactive),> 100 µM (inactive),> 100 µM (inactive),> 100 µM (inactive),> 100 µM (inactive),> 100 µM (inactive),> 100 µM (inactive),> 100 µM (inactive),> 100 µM (inactive),> 100 µM (inactive),> 100 µM (inactive),> 100 µM (inactive),–
Cc1nc2c(=O)n(C)c(=O)n(C)c2o1,–,> 100 µM (inactive),> 100 µM (inactive),> 100 µM (inactive),> 100 µM (inactive),–,> 100 µM (inactive),> 100 µM (inactive),> 100 µM (inactive),> 100 µM (inactive),> 100 µM (inactive),> 100 µM (inactive),> 100 µM (inactive),> 100 µM (inactive),> 100 µM (inactive),> 100 µM (inactive),> 100 µM (inactive),> 100 µM (inactive),> 100 µM (inactive)
CCOC(=O)c1c(O)nc2cccc3c2c1-c1cccnc1S3,20.3 µM (inactive),33.1 µM (inactive),39 µM (inactive),30.3 µM (inactive),19.9 µM (inactive),44.6 µM (inactive),25.8 µM (inactive),39.9 µM (inactive),44.7 µM (inactive),37.6 µM (inactive),11.7 µM (inactive),36 µM (inactive),23.7 µM (inactive),28.6 µM (inactive),–,34 µM (inactive),22.4 µM (inactive),16.9 µM (inactive),–
CCOC(=O)NC(=S)NC(C)c1ccccc1 (centres undefined),–,> 100 µM (inactive),> 100 µM (inactive),> 100 µM (inactive),> 100 µM (inactive),> 100 µM (inactive),> 100 µM (inactive),–,> 100 µM (inactive),> 100 µM (inactive),> 100 µM (inactive),> 100 µM (inactive),> 100 µM (inactive),> 100 µM (inactive),> 100 µM (inactive),> 100 µM (inactive),> 100 µM (inactive),26.4 µM (inactive),–
CS(=O)(=O)OCCN(CCOS(C)(=O)=O)c1ccc(/C=N/c2ccc(-c3csc(Cc4ccccc4)n3)cc2)c(Cl)c1,11.1 µM (inactive),23.2 µM (inactive),25 µM (inactive),36.5 µM (inactive),0.218 µM (active),30.4 µM (inactive),> 43.4 µM (inactive),28.8 µM (inactive),3.93 µM (inactive),3.83 µM (inactive),16.4 µM (inactive),23 µM (inactive),30.2 µM (inactive),17.7 µM (inactive),28.6 µM (inactive),37.1 µM (inactive),–,17.2 µM (inactive),0.596 µM (active)
O=C1Nc2c(Cl)cc(Cl)cc2C1=O,2.4 µM (inactive),19.7 µM (inactive),21.2 µM (inactive),14.6 µM (inactive),18.5 µM (inactive),–,–,17.9 µM (inactive),95.9 µM (inactive),18.6 µM (inactive),15.3 µM (inactive),17.3 µM (inactive),17.1 µM (inactive),20.3 µM (inactive),30.5 µM (inactive),1.94 µM (inactive),18 µM (inactive),18 µM (inactive),24.1 µM (inactive)
